{"source": "patent US20180020668A1", "about": "“Agricultural Mixtures” (priority 2015, published 2018)", "format_in_all_cases": "in vivo", "key": {"corn [1]": {"test_system": "corn", "assay": "Corn plant stand establishment and yield study (Example 2)", "conditions": "seed treatment, rates in mg active[s] per seed", "experimental": "A study was conducted in order to determine the effects of seed treatments on the number of corn plants per acre and yield. One acre was planted with seeds treated as indicated below in a randomized block design. Treatments were applied to the seeds in a manner known by those of skill in the art. The number of plants was determined for each treatment on four different days before harvest. After harvest, the yield of the plants was determined. The results of this study can be seen below in Tables 2 and 3."}, "corn [2]": {"test_system": "corn", "assay": "Another corn plant stand establishment and yield study (Example 3)", "conditions": "seed treatment, rates in mg active[s] per seed", "experimental": "Another study was conducted in order to determine the effects of seed treatments on the number of corn plants per acre and yield. The study design was the same as the study described in Example 1. The results of this study can be seen below in Tables 3 and 4."}, "Rhizoctonia": {"test_system": "Rhizoctonia", "assay": "Corn emergence, vigor and pest infestation study (Example 1, two plantings)", "conditions": "for Plant Emergence: corn, field inoculated with Rhizoctonia, seed treatment, rates per treatment in mg ai/seed; for Plant Emergence / Pest Severity / Pest Incidence / Plant Vigor: about 30 DAP; for Pest Severity: percentage of infected plants; for Pest Incidence / Plant Vigor: rated on a scale of 1 to 9; for Plant Yield: about six months after planting"}}}
{"molecule": "CN1COCN(Cc2cnc(Cl)s2)C1=N[N+](=O)[O-]", "note": "[Thiamethoxam, 3-[(2-Chloro-1,3-thiazol-5-yl)methyl]-5-methyl-N-nitro-1,3,5-oxadiazinan-4-imine]", "values": [{"measurement": "Corn Plant Stand - Number of Plants Per Acre", "setting": "corn [1]; 34 DAP", "value": 22052, "unit": "Plants Per Acre"}, {"measurement": "Corn Plant Stand - Number of Plants Per Acre", "setting": "corn [1]; 116 DAP", "value": 20010, "unit": "Plants Per Acre"}, {"measurement": "Corn Plant Yield", "setting": "corn [2]", "value": 172, "unit": "Bushels/Acre"}, {"measurement": "Plant Emergence", "setting": "Rhizoctonia; first planting", "value": 19800, "unit": "plants per acre"}, {"measurement": "Plant Emergence", "setting": "Rhizoctonia; second planting", "value": 25450, "unit": "plants per acre"}, {"measurement": "Pest Severity", "setting": "Rhizoctonia; first planting", "value": 41.3, "unit": "%"}, {"measurement": "Pest Incidence", "setting": "Rhizoctonia; first planting", "value": 3.8}, {"measurement": "Plant Vigor", "setting": "Rhizoctonia; first planting", "value": 4.0}, {"measurement": "Plant Yield", "setting": "Rhizoctonia; first planting", "value": 60.8, "unit": "Bu/A"}, {"measurement": "Pest Severity", "setting": "Rhizoctonia; second planting", "value": 16.3, "unit": "%"}, {"measurement": "Pest Incidence", "setting": "Rhizoctonia; second planting", "value": 6.5}, {"measurement": "Plant Vigor", "setting": "Rhizoctonia; second planting", "value": 5.5}, {"measurement": "Plant Yield", "setting": "Rhizoctonia; second planting", "value": 106.7, "unit": "Bu/A"}]}
